Patent US20090029366A1 (priority 2007, published 2009)

Target: T1, human HCN4 channel (Homo sapiens, UniProt Q9Y3Q4)
T1 construct: expressed in transfected cells; host or cells: CHO-K1
T1 sequence (Q9Y3Q4 1-1203): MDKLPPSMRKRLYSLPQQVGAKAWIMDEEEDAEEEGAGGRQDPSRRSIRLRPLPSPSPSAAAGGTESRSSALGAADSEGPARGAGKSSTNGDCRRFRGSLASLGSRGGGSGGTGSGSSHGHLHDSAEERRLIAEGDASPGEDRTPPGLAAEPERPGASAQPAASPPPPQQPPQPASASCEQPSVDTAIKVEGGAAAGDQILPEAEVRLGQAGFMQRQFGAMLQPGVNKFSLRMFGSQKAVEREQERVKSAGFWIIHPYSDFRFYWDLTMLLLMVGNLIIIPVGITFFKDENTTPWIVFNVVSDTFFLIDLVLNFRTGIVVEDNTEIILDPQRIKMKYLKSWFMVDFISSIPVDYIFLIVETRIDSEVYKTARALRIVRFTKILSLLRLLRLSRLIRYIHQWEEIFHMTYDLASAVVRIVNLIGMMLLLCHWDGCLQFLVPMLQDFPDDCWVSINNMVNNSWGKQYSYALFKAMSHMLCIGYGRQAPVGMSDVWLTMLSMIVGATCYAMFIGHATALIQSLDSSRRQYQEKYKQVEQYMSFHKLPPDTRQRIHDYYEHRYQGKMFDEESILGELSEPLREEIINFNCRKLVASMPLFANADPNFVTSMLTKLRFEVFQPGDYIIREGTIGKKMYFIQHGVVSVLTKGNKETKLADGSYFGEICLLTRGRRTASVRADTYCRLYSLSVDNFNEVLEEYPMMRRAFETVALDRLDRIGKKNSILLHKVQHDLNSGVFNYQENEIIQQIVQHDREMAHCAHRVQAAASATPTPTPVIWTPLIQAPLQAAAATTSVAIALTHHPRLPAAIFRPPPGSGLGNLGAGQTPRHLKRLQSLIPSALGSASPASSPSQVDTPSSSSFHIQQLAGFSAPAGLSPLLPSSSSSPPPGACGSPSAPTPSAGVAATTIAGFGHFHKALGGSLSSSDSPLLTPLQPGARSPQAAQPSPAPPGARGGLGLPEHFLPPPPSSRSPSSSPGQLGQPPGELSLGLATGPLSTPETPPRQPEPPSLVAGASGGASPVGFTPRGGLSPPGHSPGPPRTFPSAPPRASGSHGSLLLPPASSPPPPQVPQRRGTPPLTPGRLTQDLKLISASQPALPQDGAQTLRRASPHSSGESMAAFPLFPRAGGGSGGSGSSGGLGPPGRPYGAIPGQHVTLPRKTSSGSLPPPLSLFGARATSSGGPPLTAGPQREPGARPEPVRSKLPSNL
Assay: MPSD FLIPR 384 hyperpolarization assay, HCN4 (CHO-K1 cells)
Type: cell-based
Details: 50 μM ZD7288
Protocol: CHO-K1 cells stably expressing a human HCN4 channel were plated as described in Example 3 above. Using a FLIPR®^96 assay, control cells were incubated in 30 μl/well HBSS (Gibco catalog 14025-092 containing NaCl, 137.93; KCl, 5.33; KH2PO4, 0.44; NaHCO3, 4.17; Na2HPO4, 0.34; CaCl2, 1.26; MgCl2, 0.49; MgSO4, 0.41; D-Glucose 5.56). The HBSS was supplemented with MPSD (1 vial/0.5 L). The saline for test cells additionally included 30 μM of the channel inhibitor ZD7288 dissolved in <1.0% DMSO. After 15-30 minutes incubation, background fluorescence was recorded on FLIPR and the membrane hyperpolarization induced by the addition of 200 μl sodium/potassium diluent solution (140 Choline-Cl, 1.0 mM CaCl2, 1.0 mM CaCl2, 10 mM HEPES, 5.5 mM D-glucose, pH 7.3 with TRIS-OH), supplemented with MPSD (1 vial/0.5 L) was recorded on FLIPR.
The FLIPR®^384 well plate was prepared similarly to the FLIPR®^96 well plate except that the amounts of HBSS (optionally, HBSS was supplemented with about 25 to 50 mM of KCl to further enhance assay window) and the sodium/potassium diluent solution were adjusted to keep the dilution ratio of these solutions between about 1:10-1:30, respectively. Additionally, 50 μM ZD7288 was added to the saline containing test cells. […] In addition, less than about 0.02% false positives or false negatives were observed (covariance 11.03 and 12.05, data not shown).

CCN(c1ccccc1)c1cc(=NC)n(C)c(C)n1.Cl [ZD7288]
blockade of hyperpolarization of HCN4 channels: effectively blocked hyperpolarization
